# Results as given in paper PMC10382584, “Macrocyclization of linear molecules by deep learning to facilitate macrocyclic drug candidates discovery” (Nature Communications, 2023).
# Columns and labels:
# Assay in all cases: biochemical
# Parameters in all cases: DiscoveRx KINOMEscan competition binding, percent of DMSO control signal at 100 nM
# Settings in all cases: read-out: Fig. 4a / Percent Control / Compound 1; percent of DMSO control, competition binding
# [1] = target: T1, ABL1(Q252H)-nonphosphorylated (Homo sapiens, UniProt P00519, Q252H)
# T1 construct: nonphosphorylated
# Method: (§1) The kinase selectivity profile was performed by using the DiscoveRx KINOMEscan platform. […] Test compounds were prepared as 40× stocks in 100% DMSO and directly diluted into the assay. The results were defined as a percentage of signal between the negative (DMSO, 100% control) and the positive (control compound, 0% control) control, which was calculated as follows: percent control = [(test compound signal − positive control signal)/(negative control signal − positive control signal)] × 100.
# ACVR2B = ACVR2B (Homo sapiens, UniProt Q13705)
# Method: as §1
# CLK1 = CLK1 (Homo sapiens, UniProt P49759)
# Method: as §1
# DRAK1 = target: T2, DRAK1 (Homo sapiens, UniProt Q9UEE5)
# T2 construct: gene STK17A
# Method: as §1
# EIF2AK1 = EIF2AK1 (Homo sapiens, UniProt Q9BQI3)
# Method: as §1
# EPHB2 = EPHB2 (Homo sapiens, UniProt P29323)
# Chain of EPHB2 (P29323 whole entry): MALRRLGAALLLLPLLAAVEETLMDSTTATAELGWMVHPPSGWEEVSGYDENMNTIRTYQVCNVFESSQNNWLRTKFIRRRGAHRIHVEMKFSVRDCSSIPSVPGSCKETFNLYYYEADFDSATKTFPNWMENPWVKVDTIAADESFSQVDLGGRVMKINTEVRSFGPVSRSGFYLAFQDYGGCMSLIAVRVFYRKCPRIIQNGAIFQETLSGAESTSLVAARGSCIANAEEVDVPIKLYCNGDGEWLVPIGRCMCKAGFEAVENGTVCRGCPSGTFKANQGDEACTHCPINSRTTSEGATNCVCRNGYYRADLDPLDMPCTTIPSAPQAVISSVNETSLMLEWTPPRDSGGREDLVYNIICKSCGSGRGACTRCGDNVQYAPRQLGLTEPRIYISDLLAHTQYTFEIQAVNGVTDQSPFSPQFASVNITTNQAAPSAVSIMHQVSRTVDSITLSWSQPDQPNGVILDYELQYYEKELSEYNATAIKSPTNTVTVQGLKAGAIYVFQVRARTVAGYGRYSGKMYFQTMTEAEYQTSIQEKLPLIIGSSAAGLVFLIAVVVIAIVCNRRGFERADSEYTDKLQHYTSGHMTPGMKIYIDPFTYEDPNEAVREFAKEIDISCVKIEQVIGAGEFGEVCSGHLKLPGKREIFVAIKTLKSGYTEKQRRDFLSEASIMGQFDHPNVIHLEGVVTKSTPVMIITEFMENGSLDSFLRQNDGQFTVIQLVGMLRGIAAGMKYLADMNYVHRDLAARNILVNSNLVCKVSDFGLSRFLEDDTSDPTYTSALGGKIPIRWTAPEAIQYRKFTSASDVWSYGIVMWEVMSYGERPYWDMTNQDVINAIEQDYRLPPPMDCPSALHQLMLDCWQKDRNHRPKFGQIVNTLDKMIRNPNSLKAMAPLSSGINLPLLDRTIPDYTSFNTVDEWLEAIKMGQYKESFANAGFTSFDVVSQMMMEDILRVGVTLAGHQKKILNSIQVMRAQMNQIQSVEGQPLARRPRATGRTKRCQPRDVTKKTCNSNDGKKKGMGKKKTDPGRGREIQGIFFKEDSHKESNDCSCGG
# Method: as §1
# FGFR3 = FGFR3 (Homo sapiens, UniProt P22607)
# Method: as §1
# FGR = FGR (Homo sapiens, UniProt P09769)
# Chain of FGR (P09769 whole entry): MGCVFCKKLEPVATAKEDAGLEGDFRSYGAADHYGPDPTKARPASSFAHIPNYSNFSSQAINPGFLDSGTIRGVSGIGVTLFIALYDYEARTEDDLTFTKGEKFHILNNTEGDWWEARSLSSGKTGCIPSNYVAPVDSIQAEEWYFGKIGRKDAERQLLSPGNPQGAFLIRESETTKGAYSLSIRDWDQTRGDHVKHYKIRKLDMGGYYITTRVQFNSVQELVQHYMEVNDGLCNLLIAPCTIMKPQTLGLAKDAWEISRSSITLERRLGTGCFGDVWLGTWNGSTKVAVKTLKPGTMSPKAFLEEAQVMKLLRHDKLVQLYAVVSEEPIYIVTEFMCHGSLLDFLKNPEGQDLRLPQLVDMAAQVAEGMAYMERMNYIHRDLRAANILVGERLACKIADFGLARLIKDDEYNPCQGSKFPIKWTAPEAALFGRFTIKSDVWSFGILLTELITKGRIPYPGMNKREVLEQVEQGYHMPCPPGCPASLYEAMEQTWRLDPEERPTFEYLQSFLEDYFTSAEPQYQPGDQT
# Method: as §1
# FLT3(ITD,F691L) = FLT3(ITD,F691L) (Homo sapiens, UniProt P36888, F691L/ITD)
# Method: as §1
# IKK-alpha = target: T3, IKK-alpha (Homo sapiens, UniProt O15111)
# T3 construct: gene CHUK
# T3 sequence (O15111 whole entry): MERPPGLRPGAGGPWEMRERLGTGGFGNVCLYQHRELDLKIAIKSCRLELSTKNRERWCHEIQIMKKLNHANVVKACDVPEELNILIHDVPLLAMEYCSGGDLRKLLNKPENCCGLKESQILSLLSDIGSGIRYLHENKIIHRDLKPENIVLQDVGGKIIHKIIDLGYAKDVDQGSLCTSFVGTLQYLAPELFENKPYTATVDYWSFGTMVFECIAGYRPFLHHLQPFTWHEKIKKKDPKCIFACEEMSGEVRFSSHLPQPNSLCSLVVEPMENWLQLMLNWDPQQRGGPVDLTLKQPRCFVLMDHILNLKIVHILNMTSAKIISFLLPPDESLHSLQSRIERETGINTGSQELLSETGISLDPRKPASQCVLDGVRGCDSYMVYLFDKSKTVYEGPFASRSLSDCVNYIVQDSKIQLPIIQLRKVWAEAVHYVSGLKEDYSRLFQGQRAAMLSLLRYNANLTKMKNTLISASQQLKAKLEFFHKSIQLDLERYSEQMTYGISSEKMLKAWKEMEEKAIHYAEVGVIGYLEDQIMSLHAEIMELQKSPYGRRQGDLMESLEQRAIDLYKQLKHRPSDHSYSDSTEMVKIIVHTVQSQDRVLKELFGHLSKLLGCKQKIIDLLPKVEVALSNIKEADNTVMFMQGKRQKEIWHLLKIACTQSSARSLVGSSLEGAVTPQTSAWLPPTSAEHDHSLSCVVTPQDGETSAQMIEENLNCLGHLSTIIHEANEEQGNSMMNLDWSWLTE
# Method: as §1
# IRAK1 = IRAK1 (Homo sapiens, UniProt P51617)
# Method: as §1
# JNK1 = target: T4, JNK1 (Homo sapiens, UniProt P45983)
# T4 construct: gene MAPK8
# T4 sequence (P45983 whole entry): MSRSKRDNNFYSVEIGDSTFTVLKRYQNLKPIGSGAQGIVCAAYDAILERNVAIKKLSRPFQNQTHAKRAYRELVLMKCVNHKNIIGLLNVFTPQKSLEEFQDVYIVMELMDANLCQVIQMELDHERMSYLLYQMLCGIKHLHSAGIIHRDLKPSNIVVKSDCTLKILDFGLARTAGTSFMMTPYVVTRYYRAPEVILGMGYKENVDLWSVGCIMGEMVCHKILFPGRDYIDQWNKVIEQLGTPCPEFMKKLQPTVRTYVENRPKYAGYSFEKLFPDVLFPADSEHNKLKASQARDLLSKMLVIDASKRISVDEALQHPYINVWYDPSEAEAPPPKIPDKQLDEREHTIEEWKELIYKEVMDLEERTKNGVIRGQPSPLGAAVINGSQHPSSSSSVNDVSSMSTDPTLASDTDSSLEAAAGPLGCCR
# Method: as §1
# KIT = KIT (Homo sapiens, UniProt P10721)
# Chain of KIT (P10721 whole entry): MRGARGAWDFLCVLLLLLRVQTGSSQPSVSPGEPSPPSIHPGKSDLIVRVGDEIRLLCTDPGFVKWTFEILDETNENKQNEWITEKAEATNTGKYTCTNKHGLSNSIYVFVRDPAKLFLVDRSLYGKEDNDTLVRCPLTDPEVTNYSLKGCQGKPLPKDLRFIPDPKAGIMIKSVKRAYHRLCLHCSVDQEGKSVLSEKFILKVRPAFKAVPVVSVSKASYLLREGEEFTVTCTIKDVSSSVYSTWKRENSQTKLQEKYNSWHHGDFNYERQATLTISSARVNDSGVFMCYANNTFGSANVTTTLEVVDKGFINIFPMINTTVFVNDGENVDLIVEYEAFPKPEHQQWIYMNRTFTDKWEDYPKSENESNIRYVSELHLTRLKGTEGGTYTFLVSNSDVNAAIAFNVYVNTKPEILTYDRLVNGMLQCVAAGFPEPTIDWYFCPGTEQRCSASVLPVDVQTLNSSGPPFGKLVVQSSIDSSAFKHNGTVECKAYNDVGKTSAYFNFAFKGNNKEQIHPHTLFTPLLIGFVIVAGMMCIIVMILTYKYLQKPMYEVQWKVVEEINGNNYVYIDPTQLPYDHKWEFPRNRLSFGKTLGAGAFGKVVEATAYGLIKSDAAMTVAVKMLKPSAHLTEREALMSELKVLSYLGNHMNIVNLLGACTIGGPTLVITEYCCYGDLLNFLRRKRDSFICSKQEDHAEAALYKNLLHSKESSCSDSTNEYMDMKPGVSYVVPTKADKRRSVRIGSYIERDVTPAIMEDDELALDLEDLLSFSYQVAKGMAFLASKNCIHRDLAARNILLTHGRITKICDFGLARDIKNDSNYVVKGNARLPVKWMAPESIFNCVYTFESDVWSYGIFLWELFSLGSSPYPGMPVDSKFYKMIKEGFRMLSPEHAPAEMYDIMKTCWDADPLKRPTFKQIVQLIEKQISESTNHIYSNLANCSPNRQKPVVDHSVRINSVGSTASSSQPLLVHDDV
# Method: as §1
# LCK = LCK (Homo sapiens, UniProt P06239)
# Chain of LCK (P06239 whole entry): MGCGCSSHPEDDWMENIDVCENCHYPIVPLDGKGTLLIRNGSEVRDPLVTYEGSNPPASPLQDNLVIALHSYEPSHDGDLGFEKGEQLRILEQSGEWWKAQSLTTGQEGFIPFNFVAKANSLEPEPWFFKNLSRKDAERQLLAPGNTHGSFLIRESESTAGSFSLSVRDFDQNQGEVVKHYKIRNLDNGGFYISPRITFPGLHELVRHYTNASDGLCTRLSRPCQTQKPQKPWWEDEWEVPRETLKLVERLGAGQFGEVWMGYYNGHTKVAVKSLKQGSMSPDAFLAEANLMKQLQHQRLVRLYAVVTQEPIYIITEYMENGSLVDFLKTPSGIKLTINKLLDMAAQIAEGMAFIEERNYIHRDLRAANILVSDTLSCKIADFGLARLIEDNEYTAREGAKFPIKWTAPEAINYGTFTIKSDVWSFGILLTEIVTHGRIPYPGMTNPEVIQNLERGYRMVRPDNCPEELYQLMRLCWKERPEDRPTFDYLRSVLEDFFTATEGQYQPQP
# Method: as §1
# LYN = LYN (Homo sapiens, UniProt P07948)
# Method: as §1
# MAP3K4 = MAP3K4 (Homo sapiens, UniProt Q9Y6R4)
# Method: as §1
# MRCKA = target: T5, MRCKA (Homo sapiens, UniProt Q5VT25)
# T5 construct: gene CDC42BPA
# Method: as §1
# PAK4 = PAK4 (Homo sapiens, UniProt O96013)
# Method: as §1
# PAK7 = target: T6, PAK7 (Homo sapiens, UniProt Q9P286)
# T6 construct: gene PAK5
# Method: as §1
# PRKG1 = PRKG1 (Homo sapiens, UniProt Q13976)
# Method: as §1
# [2] = target: T7, RPS6KA5(Kin.Dom.2-C-terminal) (Homo sapiens, UniProt O75582)
# T7 construct: Kin.Dom.2-C-terminal
# Method: as §1
# SGK = target: T8, SGK (Homo sapiens, UniProt O00141)
# T8 construct: gene SGK1
# T8 sequence (O00141 whole entry): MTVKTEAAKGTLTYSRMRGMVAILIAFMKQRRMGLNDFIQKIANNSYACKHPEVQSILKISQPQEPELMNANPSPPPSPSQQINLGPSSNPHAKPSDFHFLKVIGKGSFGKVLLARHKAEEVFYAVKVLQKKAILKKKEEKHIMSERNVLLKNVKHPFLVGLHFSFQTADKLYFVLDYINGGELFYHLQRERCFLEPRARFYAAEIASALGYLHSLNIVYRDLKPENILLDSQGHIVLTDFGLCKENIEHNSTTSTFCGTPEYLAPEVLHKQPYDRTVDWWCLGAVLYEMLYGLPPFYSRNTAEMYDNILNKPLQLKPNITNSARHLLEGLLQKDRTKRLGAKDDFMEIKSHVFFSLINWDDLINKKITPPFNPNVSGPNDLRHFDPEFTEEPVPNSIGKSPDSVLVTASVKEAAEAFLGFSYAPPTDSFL
# Method: as §1
# TAK1 = target: T9, TAK1 (Homo sapiens, UniProt O43318)
# T9 construct: gene MAP3K7
# Method: as §1
# TGFBR1 = TGFBR1 (Homo sapiens, UniProt P36897)
# Method: as §1
# TRKB = target: T10, TRKB (Homo sapiens, UniProt Q16620)
# T10 construct: gene NTRK2
# Method: as §1
# 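Also: KINOMEscan kinase panel binding assay, signal normalized between DMSO as 100% and a positive control compound as 0%.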
smiles,measurement,setting,value
Cc1cnc2nc1Nc1cccc(c1)COCc1cc(ccc1OCCN1CCCC1)N2 [Compound 1],remaining binding at 0.1 µM,[1],51%
same,remaining binding at 0.1 µM,ACVR2B,96%
same,remaining binding at 0.1 µM,CLK1,95%
same,remaining binding at 0.1 µM,DRAK1,100%
same,remaining binding at 0.1 µM,EIF2AK1,76%
same,remaining binding at 0.1 µM,EPHB2,88%
same,remaining binding at 0.1 µM,FGFR3,95%
same,remaining binding at 0.1 µM,FGR,100%
same,remaining binding at 0.1 µM,"FLT3(ITD,F691L)",0%
same,remaining binding at 0.1 µM,IKK-alpha,96%
same,remaining binding at 0.1 µM,IRAK1,31%
same,remaining binding at 0.1 µM,JNK1,50%
same,remaining binding at 0.1 µM,KIT,57%
same,remaining binding at 0.1 µM,LCK,72%
same,remaining binding at 0.1 µM,LYN,92%
same,remaining binding at 0.1 µM,MAP3K4,100%
same,remaining binding at 0.1 µM,MRCKA,99%
same,remaining binding at 0.1 µM,PAK4,100%
same,remaining binding at 0.1 µM,PAK7,84%
same,remaining binding at 0.1 µM,PRKG1,100%
same,remaining binding at 0.1 µM,[2],100%
same,remaining binding at 0.1 µM,SGK,75%
same,remaining binding at 0.1 µM,TAK1,67%
same,remaining binding at 0.1 µM,TGFBR1,94%
same,remaining binding at 0.1 µM,TRKB,40%
